This note sets out measurements from patent publication US4766141A, “Spiro-succinimides for treatment of diabetes complications” (Pfizer Inc., priority 1987, dated 1988).

Series [1] relates to sorbitol accumulation in the sciatic nerve and lens of diabetic rats. Put plainly: Inhibition of sorbitol accumulation in sciatic nerve and lens of streptozotocin-diabetic rats. It counts as in vivo. To be noted: sacrifice at 27 h, relative to control. The method, then: Rel 1,3'S,3R Spiro[naphthalene-1(4H),3'-pyrrolidine]-2', 4,5'-trione-2,3-dihydro-7-fluoro-3-methyl, the product prepared according to the procedure of Example 1B, was tested for its ability to reduce or inhibit sorbitol accumulation in the sciatic nerve and lens of diabetic rats. This was done by following the procedure described by M. J. Peterson et al. in Metabolism, Vol. 28, No. 4, Suppl. 1, p. 456 (1979). A single intravenous dose of streptozotocin (85 mg./kg.) was administered to rats. The test compound was fed to the rats orally at four, seven and 24 hours after the administration of the streptozotocin. At 27 hours after streptozotocin administration, the animals were sacrificed and the sciatic nerve and lens were both removed for sorbitol assay. The control animals were given the same streptozotocin treatment, but were not given the test compound. The results obtained are expressed in terms of percent inhibition of sorbitol (i.e., relative to the control) afforded by the test compound in both the sciatic nerve and lens at three different dosage levels tested (viz., 2.5, 1.5 and 1.0 mg./kg.).

The nature of series [2]: Titration with 0.5 N sodium hydroxide (pKa). It counts as physicochemical. The method, then:
A. 12.5 g. of crude 5-carboxy-3-cyano-3-(3-fluorophenyl)-5-methylhexanoic acid dimethyl ester was combined with 62.5 ml. of concentrated sulfuric acid and was heated at 70° C. for 2.5 hours. The reaction was quenched over ice and extracted with three-100 ml. portions of ethyl acetate. The ethyl acetate solution was extracted with pH 11 aqueous sodium hydroxide. The aqueous base layer was washed with ethyl acetate, and the aqueous layer was adjusted to pH 2 with hydrochloric acid and extracted with four-100 ml. portions of ethyl acetate. After drying over anhydrous sodium sulfate, the ethyl acetate extract was concentrated in vacuo to an oil and eventually to a white foam. This was triturated for 20 hours with isopropyl alcohol-diethyl ether to give, after drying at 110° C. at reduced pressure, 610 mg. of the title compound, m.p. 200°-202° C. (shrinks), 212°-215° C. (decomp.). Anal. (C14 H12 O3 NF). Calcd. C,64.36; H,4.63; N,5.36. Found: C,64.25; H,4.60; N,5.42. IR(KBr): 3228, 1723, 1705, 1692, 1605, 1343, 1236, 1199, 1186 cm^-1. NMR 250 MHZ (CD3 SOCD3):δ11.7 (vbs, 1, NH), 7.97(m, 1), 7.31(m, 1 ), 7.13(m, 1), 3.5-2.1(m, 5), and 1.16(d, 3) ppm. […] This experiment defines the structure of the major diasteromer as the title spiro[naphthalene pyrrolidine]trione rather than the alternate indanone spiro-methyl glutarimide cyclization product. […]

Series [3] concerns the target T1, aldose reductase obtained from human placenta (Homo sapiens, UniProt P15121).
T1 construct: aldose reductase obtained from human placenta; from tissue; host or cells: human placenta
Description: Inhibition of aldose reductase obtained from human placenta. It is filed as biochemical. The following applies: relative to activity in absence of inhibitor, read-out: percent inhibition of aldose reductase enzyme activity. The method, then: Rel 1,3'S,3R Spiro[naphthalene-1(4H),3'-pyrrolidine]-2',4,5'-trione-2,3-dihydro-7-fluoro-3-methyl, the product prepared according to the procedure of Example 1B, was tested for inhibition of aldose reductase obtained from human placenta by using the procedure described by M. J. Peterson et al. in Metabolism, Vol. 28, No. 4, Suppl. 1, p. 456 (1979). The results obtained are expressed in terms of the percent inhibition of aldose reductase enzyme activity (i.e., relative to the aldose activity in the absence of inhibitor) afforded by the compound at three different molar concentration levels (viz., 10^-5, 10^-6 and 10^-7 M).

The pKa is the pH at which an ionisable group is half protonated. As a reminder, the inhibition is the percentage by which the read-out fell short of the control.

In the case of `C[C@@H]1C[C@]2(CC(=O)NC2=O)c2cc(F)ccc2C1=O` (relative stereo) [Example 1, Rel 1,3'S, 3R Spiro[naphthalene-1(4H), 3'-pyrrolidine]-2', 4,5'-trione-2,3-dihydro-7-fluoro-3-methyl], the “percent inhibition of sorbitol” value in series [1] (lens, 1.0 mg./kg. oral at 4, 7 and 24 h after streptozotocin) was 39%; in series [1] (lens, 1.5 mg./kg. oral at 4, 7 and 24 h after streptozotocin), 39%; in series [1] (sciatic nerve, 1.0 mg./kg. oral at 4, 7 and 24 h after streptozotocin) it was 69%; in series [1] (sciatic nerve, 1.5 mg./kg. oral at 4, 7 and 24 h after streptozotocin) it was 76%. Besides, the pKa in series [2] (in 1:1 dioxane-water) was found to be 9.59; in series [2] (in water), 8.25. The inhibition at 10 µM in series [3] (10^-5 M) is 78%. For the same compound, the inhibition at 1 µM in series [3] (10^-6 M) came out at 41%. Also, the inhibition at 0.1 µM in series [3] (10^-7 M) turned out to be 3%.
